These results are taken from patent US11840686B2, “Modulation of prekallikrein (PKK) expression” (Ionis Pharmaceuticals, Inc., priority 2013, dated 2023).

The data set has as its system human PKK mRNA. The data set can be described thus: Antisense inhibition of human PKK mRNA in HepaRG cells, 5,000 nM (Example 2). It is filed as cell-based. The method in brief: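 Percent inhibition of PKK mRNA is reported relative to untreated cells, after adjustment for total RNA by RIBOGREEN. Gapmers of 16–20 nucleosides with 2′-MOE wings were delivered at 5,000 nM by electroporation into HepaRG cells and left for roughly 24 hours before RNA isolation.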

Setting [1] is: HepaRG cells, 5,000 nM antisense oligonucleotide, 5-10-5 gapmers, Table 16.
The mark [2] stands for this setting: HepaRG cells, electroporation with 5,000 nM antisense oligonucleotide, approximately 24 hours, PKK mRNA by RT-PCR (RTS3454), relative to untreated control cells, Table 5 experiment.
Setting [3] is: HepaRG cells, electroporation with 5,000 nM antisense oligonucleotide, approximately 24 hours, PKK mRNA by RT-PCR (RTS3454), relative to untreated control cells, Table 6 experiment.
The mark [4] stands for this setting: HepaRG cells, 5,000 nM antisense oligonucleotide, 5-10-5 gapmers, Table 17.
[5] abbreviates: Table 13, human PKK mRNA in HepaRG cells, 5-10-5 gapmers.
Where [6] appears, read: Table 8, HepaRG cells, electroporation with 5,000 nM antisense oligonucleotide, approx. 24 hours, PKK mRNA by RT-PCR (RTS3454), relative to untreated control cells.
The mark [7] stands for this setting: human PKK mRNA in HepaRG cells, 5-10-5 gapmers, Table 14.
The mark [8] stands for this setting: Table 9 experiment, HepaRG cells, 20,000 cells per well, electroporation with 5,000 nM antisense oligonucleotide, approx. 24 hours, PKK mRNA by RT-PCR (RTS3454), relative to untreated control cells.
Where [9] appears, read: Table 10 experiment, HepaRG cells, 20,000 cells per well, electroporation with 5,000 nM antisense oligonucleotide, approx. 24 hours, PKK mRNA by RT-PCR (RTS3454), relative to untreated control cells.
Setting [10] is: human PKK mRNA, HepaRG cells, 5-10-5 motif oligonucleotides targeting SEQ ID NO: 1 and 10.
Where [11] appears, read: HepaRG cells, electroporation, 5,000 nM antisense oligonucleotide, approx. 24 hours, primer probe set RTS3454, relative to untreated control cells, Table 12.
[12] abbreviates: Table 7, HepaRG cells, electroporation with 5,000 nM antisense oligonucleotide, approx. 24 hours, PKK mRNA by RT-PCR (RTS3454), relative to untreated control cells.

Strand notation (5' to 3'): a small letter for the sugar, then the base; units joined by * are phosphorothioate-linked, units joined directly phosphodiester-linked; [ ] holds rarer units or linkages, { } end groups; capitals alone tell only the bases. e = 2'-O-(2-methoxyethyl) (MOE); [5mC] = 5-methylcytosine; d = 2'-deoxy (DNA)

For the substance “546970 (eG*e[5mC]*e[5mC]*e[5mC]*eA*dA*dG*d[5mC]*d[5mC]*dT*dA*d[5mC]*dA*dT*dG*e[5mC]*eA*eT*eA*e[5mC]; antisense) [compound 546970]”, under setting [1], the “% inhibition” value came out at 61%. Same read-out and setting: the value for “546955 (eA*e[5mC]*eA*eA*eG*dG*d[5mC]*dT*dT*d[5mC]*dG*dA*dG*dG*dA*e[5mC]*eA*eG*e[5mC]*e[5mC]; antisense) [compound 546955]” was 49%. Take “546143 (eG*eG*eA*eA*eA*d[5mC]*dT*dG*dT*dA*dG*d[5mC]*dA*dA*dA*e[5mC]*eA*eA*eG*eG; antisense) [compound 546143]”: the “% inhibition” value under setting [2] is on record as 46%. As to “546181 (antisense eT*eG*eA*e[5mC]*e[5mC]*dA*d[5mC]*dA*dT*dT*dG*d[5mC]*dT*dT*d[5mC]*eA*eA*eG*eG*eA) [compound 546181]”, the “% inhibition” value under setting [3] was 75%.

Turning to “546147 (eT*e[5mC]*eA*eT*eA*dG*dA*dG*dT*dT*dG*dA*dG*dT*d[5mC]*eA*eG*eA*e[5mC]*eA; antisense) [compound 546147]”, under setting [2], the “% inhibition” value turned out to be 76%. On to “547022 (eA*eT*eT*eG*eG*dT*dG*dG*d[5mC]*dG*dG*dG*dA*dT*d[5mC]*eG*eG*eT*eG*eG; antisense) [compound 547022]”, for which the “% inhibition” value under setting [4] amounted to 69%. Turning to “546804 (eA*e[5mC]*eA*eT*eG*dA*d[5mC]*dT*d[5mC]*d[5mC]*dA*dG*dT*dG*dA*eT*eG*eG*eA*eT; antisense) [compound 546804]”, the “% inhibition” value under setting [5] is on record as 57%.

As to “547425 (eT*eA*eA*e[5mC]*e[5mC]*dA*dG*dA*dG*d[5mC]*dT*d[5mC]*d[5mC]*d[5mC]*dT*eT*eG*eT*eG*eT; antisense) [compound 547425]”, the “% inhibition” value under setting [6] was 85%.

For the substance “546851 (eA*eG*eT*eA*eT*d[5mC]*dA*d[5mC]*dT*dG*dT*d[5mC]*d[5mC]*dT*dA*eT*eA*eT*e[5mC]*eA; antisense) [compound 546851]”, under setting [7], the “% inhibition” value is 81%. In the case of “546336 (antisense eT*e[5mC]*eA*eT*eT*dT*dG*dT*dT*dA*d[5mC]*d[5mC]*dA*dA*dA*eG*eG*eA*eA*eT) [compound 546336]”, the “% inhibition” value by setting is: under setting [8], 66%; under setting [9], 73%. On to “547664 (eG*eT*eA*e[5mC]*e[5mC]*dT*dA*dT*dA*dA*d[5mC]*dT*dA*dT*dA*eA*e[5mC]*eA*eG*eT; antisense) [compound 547664]”, for which, under setting [10], the “% inhibition” value is 2%.

For the substance “547639 (eG*eT*e[5mC]*e[5mC]*eT*dA*dT*dA*dA*d[5mC]*dT*dA*dT*dA*dA*e[5mC]*eA*eG*eT*eA; antisense) [compound 547639]”, the “% inhibition” value under setting [10] was found to be 72%. In the case of “547512 (antisense eG*e[5mC]*eA*eG*eA*dT*dG*dA*dG*dG*dA*d[5mC]*d[5mC]*d[5mC]*d[5mC]*e[5mC]*e[5mC]*eA*eG*eG) [compound 547512]”, the “% inhibition” value (HepaRG cells, electroporation, 5,000 nM antisense oligonucleotide, approx. 24 hours, primer probe set RTS3454, relative to untreated control cells, Table 11) was determined as 74%.

Turning to “546493 (e[5mC]*eA*eT*eA*e[5mC]*dT*d[5mC]*dG*d[5mC]*d[5mC]*dT*dT*dT*dG*dT*eG*eA*e[5mC]*eT*e[5mC]; antisense) [compound 546493]”, under setting [11], the “% inhibition” value turned out to be 35%. With “546839 (e[5mC]*e[5mC]*eT*eA*eT*dA*dA*d[5mC]*dT*d[5mC]*dT*dA*dA*d[5mC]*dA*eG*eT*eA*eT*e[5mC]; antisense) [compound 546839]”, the “% inhibition” value under setting [5] is 47%. With “546259 (eA*e[5mC]*eT*eG*eA*d[5mC]*dA*dG*d[5mC]*dG*dA*dA*dT*d[5mC]*dA*eT*e[5mC]*eT*eT*eT; antisense) [compound 546259]”, under setting [6], the “% inhibition” value turned out to be 86%.

Turning to “547599 (antisense eT*eT*e[5mC]*e[5mC]*eT*dA*dT*dA*dA*d[5mC]*dT*dA*dT*dA*dA*e[5mC]*eA*eA*eT*eA) [compound 547599]”, the “% inhibition” value under setting [7] worked out at 4%. Consider “546297 (antisense eT*eA*eT*eA*eG*dA*dT*dG*d[5mC]*dG*d[5mC]*d[5mC]*dA*dA*dA*e[5mC]*eA*eT*e[5mC]*e[5mC]) [compound 546297]”, for which the “% inhibition” value under setting [6] worked out at 82%. As for “547663 (eT*eA*e[5mC]*e[5mC]*eT*dA*dT*dA*dA*d[5mC]*dT*dA*dT*dA*dA*e[5mC]*eA*eG*eT*eA; antisense) [compound 547663]”, under setting [10], the “% inhibition” value was 10%. “547743 (eG*eG*eT*eG*eG*dT*dG*dG*dG*dA*dT*dT*dG*dG*dT*eG*eG*e[5mC]*eG*eG; antisense) [compound 547743]”: the “% inhibition” value under setting [4] is 61%. Take “546233 (eA*eT*eG*eG*eT*dG*dT*dT*dT*dT*d[5mC]*dT*dT*dG*dA*eG*eG*eA*eG*eT; antisense) [compound 546233]”: the “% inhibition” value under setting [12] is reported as 69%. “546324 (antisense eG*eG*eT*eA*eT*dA*dA*dA*dT*dT*dG*dT*dG*d[5mC]*dT*eT*eG*eT*eG*eT) [compound 546324]”: the “% inhibition” value is, setting by setting: under setting [8], 73%; under setting [9], 82%. Regarding “547408 (eT*e[5mC]*eA*e[5mC]*eA*dT*dT*d[5mC]*dA*dA*dT*dT*d[5mC]*dT*dT*e[5mC]*eT*e[5mC]*e[5mC]*eT; antisense) [compound 547408]”, the “% inhibition” value under setting [12] came out at 84%. Regarding “546843 (eT*eA*eT*e[5mC]*eA*d[5mC]*dT*dG*dT*d[5mC]*d[5mC]*dT*dA*dT*dA*eA*e[5mC]*eT*e[5mC]*eT; antisense) [compound 546843]”, under setting [5], the “% inhibition” value was found to be 52%. Consider “547680 (antisense eT*eA*eT*e[5mC]*eA*d[5mC]*dT*dG*dT*dA*d[5mC]*d[5mC]*dT*dA*dT*eA*eT*e[5mC]*eA*e[5mC]) [compound 547680]”, for which the “% inhibition” value under setting [1] was found to be 41%.

For “546878 (e[5mC]*e[5mC]*eT*eA*eT*dA*dA*d[5mC]*dA*dG*dT*dA*dT*d[5mC]*dA*e[5mC]*eT*eG*eT*e[5mC]; antisense) [compound 546878]”, the “% inhibition” value under setting [7] came to 81%.

For “547537 (antisense e[5mC]*e[5mC]*eT*eG*eT*dG*d[5mC]*dA*dT*dA*dG*dA*d[5mC]*d[5mC]*d[5mC]*e[5mC]*eA*eA*e[5mC]*eA) [compound 547537]”, the “% inhibition” value under setting [11] stood at 65%.

Regarding “547438 (antisense eG*eG*eG*e[5mC]*e[5mC]*dA*d[5mC]*dT*d[5mC]*dT*d[5mC]*d[5mC]*d[5mC]*d[5mC]*dA*eA*eG*eA*eA*eG) [compound 547438]”, under setting [6], the “% inhibition” value came to 82%. On to “547554 (antisense eG*e[5mC]*eT*e[5mC]*eT*dG*dA*dT*dT*dG*dG*dG*dT*d[5mC]*dA*e[5mC]*e[5mC]*eA*e[5mC]*eA) [compound 547554]”, for which the “% inhibition” value under setting [11] came to 50%.

“548769 (antisense eA*eG*eT*eA*dT*d[5mC]*dA*d[5mC]*dT*dG*dT*d[5mC]*d[5mC]*eT*eA*eT*eA) [compound 548769]”: for the setting “human PKK mRNA, HepaRG cells, 5,000 nM antisense oligonucleotide, Table 18”, the “% inhibition” value was 64%. Consider “546502 (eG*eA*eT*eT*eT*dT*d[5mC]*d[5mC]*dA*dT*dG*d[5mC]*dA*dT*dA*e[5mC]*eT*e[5mC]*eG*e[5mC]; antisense) [compound 546502]”, for which the “% inhibition” value under setting [11] is 37%. As to “546425 (eG*eG*eT*e[5mC]*eA*dA*dT*d[5mC]*dT*dG*dA*d[5mC]*dT*dA*dG*eT*eG*eA*eA*eT; antisense) [compound 546425]”, the “% inhibition” value under setting [11] is reported as 69%. With “548711 (DNA e[5mC]*eT*eG*dT*dA*d[5mC]*dT*dA*dG*dT*dT*dT*d[5mC]*e[5mC]*eT*eA; antisense) [compound 548711]”, the “% inhibition” value (HepaRG cells, 5,000 nM antisense oligonucleotide, human PKK mRNA, Table 18) is given as 21%.

Take “547339 (antisense eT*eA*eT*e[5mC]*eA*dA*d[5mC]*dT*d[5mC]*d[5mC]*dT*dT*dT*dA*dT*eA*eA*eA*eT*eG) [compound 547339]”: under setting [3], the “% inhibition” value was 42%.

Consider “547393 (eT*eG*e[5mC]*eA*eG*dG*dT*dT*dA*dA*dA*dA*dG*dG*d[5mC]*eT*eA*eT*eA*eT; antisense) [compound 547393]”, for which, under setting [12], the “% inhibition” value came out at 73%. “547024 (eG*eG*eA*eT*eT*dG*dG*dT*dG*dG*d[5mC]*dG*dG*dG*dA*eT*e[5mC]*eG*eG*eT; antisense) [compound 547024]”: the “% inhibition” value under setting [4] amounted to 56%. For the substance “547592 (eT*e[5mC]*e[5mC]*eT*eA*dT*dA*dA*d[5mC]*dT*dA*dT*dA*dA*d[5mC]*eA*eG*eT*eA*eT; antisense) [compound 547592]”, under setting [7], the “% inhibition” value was determined as 27%.

As to “547674 (eA*e[5mC]*eA*eA*eT*dA*dT*d[5mC]*dA*d[5mC]*dT*dG*dT*dA*d[5mC]*e[5mC]*eT*eT*eT*eA; antisense) [compound 547674]”, the “% inhibition” value under setting [10] stood at 53%. Regarding “547603 (antisense eT*eA*eT*e[5mC]*eA*d[5mC]*dT*dG*dT*dA*d[5mC]*d[5mC]*dT*dA*dT*eA*eA*e[5mC]*eT*e[5mC]) [compound 547603]”, the “% inhibition” value under setting [7] came to 41%.
